Measured values published in article PMC10235067, “Increased renal elimination of endogenous and synthetic pyrimidine nucleosides in concentrative nucleoside transporter 1 deficient mice” (Nature Communications, 2023).

Tests used:
CNT1 [1] = target: T1, CNT1 (Mus musculus, UniProt E9PXX9); conditions: Slc28a1+/+ (CNT1 WT) mice, urine, one value per animal; Figure 2D-F source data
T1 sequence (E9PXX9 1-648): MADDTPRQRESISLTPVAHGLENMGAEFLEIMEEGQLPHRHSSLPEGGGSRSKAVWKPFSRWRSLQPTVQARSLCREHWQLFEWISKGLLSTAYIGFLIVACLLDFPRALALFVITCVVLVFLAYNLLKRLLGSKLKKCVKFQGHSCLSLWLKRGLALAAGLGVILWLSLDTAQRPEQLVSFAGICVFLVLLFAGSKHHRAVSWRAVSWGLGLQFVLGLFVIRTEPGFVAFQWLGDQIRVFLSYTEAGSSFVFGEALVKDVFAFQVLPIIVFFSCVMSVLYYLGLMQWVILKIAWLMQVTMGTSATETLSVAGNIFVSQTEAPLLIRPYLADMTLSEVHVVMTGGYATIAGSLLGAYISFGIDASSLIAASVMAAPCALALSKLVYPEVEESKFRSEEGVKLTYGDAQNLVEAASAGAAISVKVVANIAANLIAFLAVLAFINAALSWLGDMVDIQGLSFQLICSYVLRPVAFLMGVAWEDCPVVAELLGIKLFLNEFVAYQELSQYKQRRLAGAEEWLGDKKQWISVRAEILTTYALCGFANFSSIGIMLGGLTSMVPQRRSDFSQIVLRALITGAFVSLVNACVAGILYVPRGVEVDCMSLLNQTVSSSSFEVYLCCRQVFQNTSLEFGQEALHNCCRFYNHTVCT
Procedure: (§1) Linearity was established for analytes over the concentration ranges observed and the lower limit of quantification of the LC–MS/MS assay was approximately 0.1 ng/ml for each analyte (Fig. S2).
(§2) Standard solutions of all nucleotide targets were serially diluted to generate calibration solutions at concentrations of 0.0, 0.0001, 0.001, 0.01, 0.1, 1.0, and 10 µg/ml. Urine samples were prepared by adding 20 µL of urine solution to 80 µL of 50:50 H2O:MeOH containing internal standard, vortexing and centrifuging at 20,000 × g; then, 50 µL aliquots were placed into glass vials, dried in a SpeedVac and reconstituted in 5% MeOH with 0.1% formic acid for injection.
(§3) Samples were quantified using a heated electrospray ionization source (HESI) on a Thermo Scientific TQS Quantiva triple quadrupole mass spectrometer, and separation was achieved using a Thermo Scientific Ultimate 3000 HPLC equipped with an Agilent 120 SB-C18 reversed-phase column (2 × 100 mm, 2.7 µm particle size) maintained at 40 °C. […] For all experiments, the capillary voltage was set to 4.5 kV with a capillary temperature of 350 °C, a vaporizer temperature of 100 °C, a sheath gas flow of 12, an auxiliary gas flow of 13, and a 1.6 sweep gas. For selected reaction monitoring (SRM) mode, Q1 and Q3 were set to 0.7 full width at half maximum (FWHM) resolution, a cycle time of 0.8 s, and a CID gas pressure of 1.5 mTorr.

CNT1 [2] = conditions: for Concentration in urine: Slc28a1+/+ and Slc28a1-/- mice; for Concentration in urine / concentration in urine, Slc28a1+/+ vs Slc28a1-/-: 12 h starvation; for fold increase of content in urine of Slc28a1-/- mice: Slc28a1-/- vs Slc28a1+/+, urine collected over 12 h starvation, 8-week-old mice, n = 6
Procedure: as §1, §2, §3

[3] = tested on: dihydropyrimidine dehydrogenase (DPD); conditions: cited from earlier work

SMILES: Nc1ncnc2c1ncn2[C@H]1C[C@H](O)[C@@H](CO)O1 [deoxyadenosine]
- Urine level of nucleoside / deoxynucleoside / nucleobase, CNT1 WT Urine (individual mice) (CNT1 [1]): 0
- Concentration in urine (CNT1 [2]): undetectable

SMILES: O=c1ccn([C@@H]2O[C@H](CO)[C@@H](O)[C@H]2O)c(=O)[nH]1 [uridine]
- fold increase of content in urine of Slc28a1-/- mice (CNT1 [2]): 5.9 fold

SMILES: Nc1ncnc2c1ncn2[C@@H]1O[C@H](CO)[C@@H](O)[C@H]1O [Adenosine]
- concentration in urine, Slc28a1+/+ vs Slc28a1-/- (CNT1 [2]): not significantly different

SMILES: Nc1nc2c(ncn2[C@H]2C[C@H](O)[C@@H](CO)O2)c(=O)[nH]1 [deoxyguanosine]
- Concentration in urine (CNT1 [2]): undetectable

SMILES: Nc1ccn([C@@H]2O[C@H](CO)[C@@H](O)[C@H]2O)c(=O)n1 [cytidine]
- fold increase of content in urine of Slc28a1-/- mice (CNT1 [2]): 52.9 fold

SMILES: Nc1nc2c(ncn2[C@@H]2O[C@H](CO)[C@@H](O)[C@H]2O)c(=O)[nH]1 [Guanosine]
- concentration in urine, Slc28a1+/+ vs Slc28a1-/- (CNT1 [2]): not significantly different

SMILES: O=c1[nH]cc(F)c(=O)[nH]1 [5’-fluorouracil]
- share of elimination mediated by DPD through hepatic metabolism [3]: 80%
